Experimental data: patent publication US5866611A, “Therapeutic amines” (Zeneca Limited, priority 1993, dated 1999)
Structures can show the parent of a compound that is named as a salt.

How the values were obtained:
Squalene synthase = assay: Inhibition of Squalene synthase; assay type: biochemical; conditions: rat liver microsomal protein, 15 min, 37° C.
Procedure: (a) Inhibition of Squalene synthase
In this test, the ability of a compound to prevent the formation of squalene from a radioactive substrate (tritiated farnesyl pyrophosphate) is assessed.
The test compound is incubated at a concentration of 25 micromolar in 200 μl of a buffered solution containing potassium phosphate (50 mM), MgCl2 (4.95 mM), KF (9.9 mM), NADPH (0.9 mM) and rat liver microsomal protein (20 μg). Rat liver microsomes are prepared by the method described in published European Patent Application No. 324,421 and stored in liquid nitrogen prior to assay. Assay vials are kept at 37° C. throughout the incubation.
The reaction is started with the addition of the substrate (1-[^3 H]-farnesyl pyrophosphate), final concentration […], and stopped after 15 minutes reaction time with the addition of 50 μl of 4% KOH. The reaction products are separated from unreacted substrate after application to a C-18 octadecyl 1ccBond column (Analytichem Int product No. 617101). An aqueous fraction is eluted with 250 μl of 0.1M KOH. Squalene is then eluted with 1.0 ml 10% ethylacetate in hexane and radioactivity determined. The difference in radioactivity in the presence and absence of the test compound is used to determine the level of inhibition. […] The IC50 can then be determined from a plot of percentage inhibition against concentration of test compound.

[1] = test system: de novo hepatic cholesterol synthesis; assay: Acute rat cholesterol synthesis assay; conditions: acute in vivo, female rats, 14C-acetate ip, plasma cholesterol specific radioactivity, route for this compound not given
Procedure: (b) Acute rat cholesterol synthesis assay.
This is an acute in vivo test in the rat to measure de novo hepatic cholesterol synthesis from exogenously administered ^14 C-acetate.
Female rats (35-55 g) are housed in reverse lighting conditions (red light from 0200 h-1400 h) for a period of about 2 weeks prior to test. Animals are allowed free access to chow and drinking water throughout this period. At test, animals should weigh 125-150 g.
Test compounds may be administered by oral gavage, dissolved or suspended in 0.5% polysorbate, or by ip or iv dosing. Control animals receive vehicle alone. After 1 hour the rats are injected ip with 25 μCi [2-^14 C]-acetate (NEN DUPONT. specific activity, 45-60mCi/mmol NEC-085H, or AMERSHAN specific activity, 50-60 mCi/mmol CFA 14) in a volume of 0.25 ml saline (100 μCi/ml). After a further hour, rats are terminally anaesthetised with halothane and a blood sample obtained from the abdominal vena cava.
1ml of plasma is lyophilised and then saponified in 2ml ethanolic KOH (1 part 33% KOH, 9 parts ethanol) at […] for 2 hours. After addition of an equal quantity of water, non-saponifiable lipids are extracted with two 5ml volumes of hexane. The hexane extracts are evaporated to dryness and the residues dissolved in ethanol to determine cholesterol specific radioactivity. ED50 values can be determined in the standard way.

SMILES: CCCCOc1ccc(OCCCNC(C)C)c(CCC)c1 [Example 2, N-isopropyl-3-(4-butoxy-2-propylphenoxy)propylamine]
- inhibition of squalene synthase (Squalene synthase; at a concentration of 25 μM): about 74%

SMILES: CCCc1cc(NC(C)=O)ccc1OCCCNC(C)C [Example 95, 3-n-propyl-4-(3-[N-isopropylamino]propoxy)-acetanilide hydrochloride]
- inhibition of squalene synthase (Squalene synthase; at 2.5 μM): about 86%
- ED50 [1]: 27 mg/kg
